Laboratory results: patent US20100226994A1, “GRANULE, TABLET AND METHODS FOR PRODUCING THE SAME” (priority 2007, published 2010)

Assay: Heat storage of granule or raw substance on a tray at 70° C., residual ratio of functional substance
Format: physicochemical

Compound | residual ratio of lipoic acid (on a tray at 70° C. for 24 hours) [%] | residual ratio of vitamin E (on a tray at 70° C. for 72 hours) [%]
O=C(O)CCCCC1CCSS1 (centres unmarked) [Comparative Example 8, Lipoic acid] | 40.5 | –
Vitamin E [Comparative Example 10] | – | 96.5
